Test results taken from article PMC8224697 (Marine Drugs, 2021).
Values after ≈ are worked out from the molar mass of the structure shown. “Also recorded” adds a separate entry of the source. Read-outs that look alike come from different tables or passages of the source.

Legend:
[1] = system: C. albicans strains SC5314 (wild type), MRC10 (Δicl), and MRC11 (Δicl + ICL); experiment: Growth phenotype analysis on YNB agar plates; type: cell-based, Candida albicans; details: 2 days, 28 °C
Procedure: To determine the effects of secoemestrin C (1) on C. albicans growth under C2–assimilating conditions, phenotypic analyses of ICL-deletion mutants were also performed using C. albicans strains SC5314 (wild type), MRC10 (Δicl), and MRC11 (Δicl + ICL). After pre-culture, each strain was streaked onto YNB agar plates supplemented with glucose or potassium acetate with or without 64 μg/mL secoemestrin C (1).
Figure 3 Inhibitory activity of secoemestrin C (1) toward the growth and ICL mRNA expression of C. albicans. (a) C. albicans strains SC5314 (wild-type), MRC10 (Δicl), and MRC11 (Δicl + ICL) were cultured on YNB agar plates containing 2% glucose or 2% potassium acetate as a carbon source with or without 64 μg/mL secoemestrin C (1) for 2 days at 28 °C. […] ICL mRNA expression was analyzed by RT-PCR. Glyceraldehyde-3-phosphate dehydrogenase (GPDH), a housekeeping gene, was measured as a loading control.
(§1) Growth phenotype and ICL expression analysis were performed using C. albicans strains SC5314 (wild type), MRC10 (Δicl), and MRC11 (Δicl + ICL) according to a previously described method. […] Semi-quantitative RT-PCR was conducted using ICL-specific primers: 5′-[…]-3′ (forward) and 5′-TAGATTCAGCTTCA GCCATCAAAGC-3′ (reverse). The expression of the housekeeping gene glyceraldehyde-3-phosphate dehydrogenase (GPDH) was measured as a loading control.

[2] = system: C. albicans strains (SC5314, ATCC10231, ATCC10259, ATCC11006, and ATCC18804); experiment: In vitro growth assay (MIC), summary over the strain panel; type: cell-based; details: Candida albicans; C. albicans growing on acetate, over five strains
Procedure: (§2) Following phagocytosis by macrophages, C. albicans undergoes a metabolic shift from glycolysis to the glyoxylate cycle, enabling cells to utilize C2 carbon sources. Therefore, we hypothesized that the ICL inhibitor reduces nutrient uptake capacity and impedes the survival of C. albicans within macrophages.
(§3) The antifungal activity of secoemestrin C (1), dethiosecoemestrin (2), emestrin (3), and emestrin B (4) was evaluated against C. albicans strains (SC5314, ATCC10231, ATCC10259, ATCC11006, and ATCC18804) using a previously documented procedure. The growth of C. albicans was monitored in YNB broth with glucose or potassium acetate as the carbon source. The plates were incubated at 28 °C for 3 days. […] Amphotericin B, an antifungal agent, was applied as a positive control.

[3] = target: T1, recombinant ICL cloned from C. albicans ATCC10231 (Candida albicans, UniProt Q9P8Q7); experiment: ICL inhibition assay (glyoxylate phenylhydrazone formation, A324 nm); type: biochemical; details: for IC50: purified recombinant ICL, n = 3
T1 construct: made in house
T1 sequence (Q9P8Q7 whole entry): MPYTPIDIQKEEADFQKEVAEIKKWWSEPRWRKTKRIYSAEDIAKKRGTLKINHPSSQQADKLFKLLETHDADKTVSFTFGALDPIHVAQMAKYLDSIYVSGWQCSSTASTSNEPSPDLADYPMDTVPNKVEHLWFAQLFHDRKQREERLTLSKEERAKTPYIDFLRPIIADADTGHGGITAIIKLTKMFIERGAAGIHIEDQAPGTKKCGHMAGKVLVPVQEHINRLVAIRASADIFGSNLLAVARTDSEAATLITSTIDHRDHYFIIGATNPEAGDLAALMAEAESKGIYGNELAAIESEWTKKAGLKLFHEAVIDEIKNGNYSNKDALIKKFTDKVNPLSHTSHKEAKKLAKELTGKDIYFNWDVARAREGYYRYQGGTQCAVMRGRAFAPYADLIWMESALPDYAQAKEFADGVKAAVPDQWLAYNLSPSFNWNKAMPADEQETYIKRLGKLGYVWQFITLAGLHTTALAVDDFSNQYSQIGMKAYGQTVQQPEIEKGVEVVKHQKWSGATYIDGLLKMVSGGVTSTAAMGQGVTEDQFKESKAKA
Procedure: The preparation of recombinant ICL cloned from C. albicans ATCC10231 was performed as described previously. The inhibitory activities of secoemestrin C (1), dethiosecoemestrin (2), emestrin (3), and emestrin B (4) against purified recombinant ICL were evaluated according to a previously documented procedure. The production of ICL-catalyzed glyoxylate phenylhydrazone from phenylhydrazine and isocitrate was measured using a spectrophotometer at an absorbance wavelength of 324 nm.
The preparation of the recombinant ICL protein from C. albicans ATCC10231 was performed as described in a previous paper. We used the two synthetic primers IC-1 (5′-[…]-3′) and IC-2 (5′-[…] […]-3′) to perform a PCR amplification of ICL. The ICL inhibitory activity of the test compounds were evaluated according to a previously described method. The ICL-catalyzed formation of glyoxylate phenylhydrazone from isocitrate and phenylhydrazine substrates was measured using a spectrophotometer at an absorbance wavelength of 324 nm. The inhibitory activity of the test compound was calculated relative to that of the DMSO control (n = 3). We used 3-nitropropionate as a positive control.

[4] = system: ICL mRNA expression in C. albicans; experiment: ICL mRNA expression by semi-quantitative RT-PCR; type: cell-based, Candida albicans; details: cells grown in 2% acetate with 16, 32, or 64 μg/mL compound; 4 h, 28 °C; SC5314 and MRC11
Procedure: Figure 3 Inhibitory activity of secoemestrin C (1) toward the growth and ICL mRNA expression of C. albicans. (a) C. albicans strains SC5314 (wild-type), MRC10 (Δicl), and MRC11 (Δicl + ICL) were cultured on YNB agar plates containing 2% glucose or 2% potassium acetate as a carbon source with or without 64 μg/mL secoemestrin C (1) for 2 days at 28 °C. (b) Strains were grown in YNB broth containing 2% glucose, collected by centrifugation, and transferred to YNB containing 2% glucose (Glu), 2% potassium acetate (Ace), or 2% Ace + secoemestrin C (1) (16, 32, or 64 μg/mL) and cultured for 4 h at 28 °C. ICL mRNA expression was analyzed by RT-PCR. Glyceraldehyde-3-phosphate dehydrogenase (GPDH), a housekeeping gene, was measured as a loading control.
We further investigated the effects of secoemestrin C (1) on ICL mRNA expression in C. albicans using a semi-quantitative reverse-transcription polymerase chain reaction (RT-PCR). […] GPDH expression was detected in all treatment conditions.
as §1, with “The expression of the housekeeping gene glyceraldehyde-3-phosphate dehydrogenase (GPDH) was measured as a loading control.” left out

[5] = system: C. albicans ATCC10231; experiment: microbe, parasite or virus in culture; type: cell-based, Candida albicans
Text: (§4) The ICL gene was cloned from C. albicans strain ATCC10231 genomic DNA. C. albicans SC5314 (ATCC MYA-2876) (wild type), MRC10 (Δicl) (ICL-deletion mutant), MRC11 (Δicl + ICL) (ICL-complemented mutant), […], ATCC18804, and ATCC11006 were used for the growth assay. The ICL-deletion mutant strains MRC10 and MRC11 were kindly provided by Prof. Michael C. Lorenz (The University of Texas Health Science Center at Houston). Each strain was subcultured in YNB broth (Difco Laboratories, Detroit, MI, USA) supplemented with 2% glucose at 28 °C. For the ICL inhibitor addition, isolated compounds dissolved in DMSO were added to a final solvent concentration of 0.5% in all growth assays.
as §3

[6] = system: C. albicans ATCC10259; experiment: In vitro growth assay (MIC) in YNB broth; type: cell-based; details: Candida albicans, ATCC10259, 72 h, 28 °C
Text: as §2, §4, §3

[7] = system: C. albicans ATCC11006; experiment: In vitro growth assay (MIC) in YNB broth; type: cell-based; details: Candida albicans, ATCC11006, 72 h, 28 °C
Text: as §2, §4, §3

[8] = system: C. albicans ATCC18804; experiment: In vitro growth assay (MIC) in YNB broth; type: cell-based; details: Candida albicans, ATCC18804, 72 h, 28 °C
Text: as §2, §4, §3

[9] = system: C. albicans SC5314; experiment: In vitro growth assay (MIC) in YNB broth; type: cell-based, Candida albicans; details: 28 °C
Text: as §2, §4, §3

[10] = Candida albicans, ATCC10231, 72 h, ATCC10231, YNB with 2% glucose, 72 h, 28 °C, read-out: MIC
[11] = Candida albicans, ATCC10231, 72 h, ATCC10231, YNB with 2% potassium acetate, 72 h, 28 °C, read-out: MIC
[12] = Candida albicans, ATCC10231, Table 1: growth of C. albicans ATCC10231, read-out: MIC
[13] = Candida albicans, SC5314, 72 h, YNB with 2% glucose, read-out: MIC
[14] = Candida albicans, SC5314, 72 h, YNB with 2% potassium acetate, read-out: MIC
[15] = Candida albicans, ATCC10231, Table 1: growth of C. albicans ATCC10231
[16] = YNB with 2% glucose, read-out: MIC
[17] = YNB with 2% potassium acetate, read-out: MIC

| SMILES | IC50 [3] [µM] | MIC [5, 10] [µg/mL] | MIC [5, 11] [µg/mL] | MIC [5, 12] [µg/mL] | MIC [9, 13] [µg/mL] | MIC [9, 14] [µg/mL] | inhibitory activity toward ICL (in words) [3] | MIC [5, 15] [µg/mL] | further results |
| --- | --- | --- | --- | --- | --- | --- | --- | --- | --- |
| COc1ccc(C(=O)O[C@H]2C=COC=C3[C@@H](O)[C@]45SSSS[C@H](C(=O)N4[C@@H]32)N(C)C5=O)cc1Oc1cc(C=O)ccc1O [Secoemestrin C (1), secoemestrin C] | 4.77 ± 0.08 | > 128 | 64 (≈ 96.6 µM) | > 128 | > 128 | 64 (≈ 96.6 µM) | – | – | growth phenotype ([1]; 2% glucose plus 64 μg/mL compound, all strains): normal phenotypes; growth phenotype ([1]; 2% potassium acetate plus 64 μg/mL compound): failed to grow; also recorded: no growth; MIC [2]: 32 to 64 µg/mL (≈ 48.3 to 96.6 µM); reversibility of binding to the enzyme ([3]; enzyme activity not recovered by dialysis within 1 h): irreversible; ICL inhibition mechanism ([3]; kinetic analysis, Lineweaver–Burk plot): uncompetitive inhibitor; intensity of the PCR band corresponding to the ICL product (ICL mRNA) [4]: decreased; MIC ([6]; YNB with 2% glucose): > 128 µg/mL; MIC ([6]; YNB with 2% potassium acetate): 32 µg/mL (≈ 48.3 µM); MIC ([7]; YNB with 2% glucose): > 128 µg/mL; MIC ([7]; YNB with 2% potassium acetate): 64 µg/mL (≈ 96.6 µM); MIC ([8]; YNB with 2% glucose): > 128 µg/mL; MIC ([8]; YNB with 2% potassium acetate): 64 µg/mL (≈ 96.6 µM); MIC ([9]; YNB with 2% glucose, 72 h): >128 µg/mL |
| COc1ccc(C(=O)O[C@H]2C=COC=C3C=C4C(=O)N(C)C(=O)C(=O)N4[C@@H]32)cc1Oc1cc(C=O)ccc1O [Dethiosecoemestrin (2), dethiosecoemestrin] | > 241 | – | – | > 128 | > 128 | – | no inhibitory activity | – | – |
| O=C(O)CC[N+](=O)[O-] [3-Nitropropionate, 3-nitropropionate, reference compound] | 21.8 ± 1.38 | – | – | – | – | – | – | – | MIC ([5]; Table 1: growth of C. albicans ATCC10231): >128 µg/mL |
| COc1ccc2cc1Oc1cc(ccc1O)C(O)C13SSC4(C(=O)N1C)C(O)C1=COC=CC(OC2=O)C1N4C3=O (stereo not drawn) [Emestrin (3), emestrin] | > 214 | – | – | – | > 128 | – | not inhibitors of ICL | > 128 | inhibitory activity toward ICL (in words) ([3]; listed as emestrin (3)): no inhibitory activity |
| C[C@@H]1[C@H](O)[C@@H](C)/C=C/C=C/C=C/C=C/C=C/C=C/C=C/[C@H](O[C@@H]2O[C@H](C)[C@@H](O)[C@H](N)[C@@H]2O)C[C@@H]2O[C@](O)(C[C@@H](O)C[C@@H](O)[C@H](O)CC[C@@H](O)C[C@@H](O)CC(=O)O[C@H]1C)C[C@H](O)[C@H]2C(=O)O [Amphotericin B, amphotericin B, reference compound] | – | 0.5 (≈ 0.541 µM) | 0.5 (≈ 0.541 µM) | 0.5 (≈ 0.541 µM) | 0.5 (≈ 0.541 µM) | 0.5 (≈ 0.541 µM) | – | – | MIC [6, 16]: 1 µg/mL (≈ 1.08 µM); MIC [6, 17]: 0.5 µg/mL (≈ 0.541 µM); MIC [7, 16]: 0.5 µg/mL (≈ 0.541 µM); MIC [7, 17]: 0.5 µg/mL (≈ 0.541 µM); MIC [8, 16]: 1 µg/mL (≈ 1.08 µM); MIC [8, 17]: 1 µg/mL (≈ 1.08 µM) |
| COc1ccc2cc1Oc1cc(ccc1O)C(O)C13SSSC4(C(=O)N1C)C(O)C1=COC=CC(OC2=O)C1N4C3=O (stereo not drawn) [Emestrin B (4), emestrin B] | > 203 | – | – | – | > 128 | – | no inhibitory activity; also recorded: not inhibitors of ICL | > 128 | – |
